# From patent publication US4336268A, “Cyclohexene derivative analgesics” (Hoffmann-La Roche Inc., priority 1980, dated 1982)
# Counter-ions that a name gives are not always drawn.
# Experiments:
# Format in all cases: in vivo
# [1] = "writhing test" (analgesic activity); conditions: p.o.; for ED50: Mus musculus, po
# From the text: (§1) In the Table which follows are compiled the ED50 values obtained in this test with representative compounds of formula I. The Table also contains data relating to the acute toxicity of the compounds, that is, LD50 in mg/kg in the case of single oral administration to mice.
# [2] = acute toxicity, single oral administration to mice; conditions: mouse, in vivo
# From the text: as §1
# mice = assay: acute toxicity, single oral administration to mice
# From the text: as §1
SMILES,"ED50 ([1]; 0.5 h, after 30 min.)","ED50 ([1]; 1 h, after 60 min.)",LD50 [2],"ED50 in the ""writhing test"" ([1]; after 60 min., hydrochloride, 60 min)",LD50 (mice)
"CN(C)CCC1(c2cccc(O)c2)C=CCCC1 (racemic) [rac. 1-(m-Hydroxyphenyl)-N,N-dimethyl-2-cyclohexene-1-ethylamine hydrochloride]",41 mg/kg,26 mg/kg,250 to 500 mg/kg,,
"COc1cccc(C2(CCN(C)C)C=CCCC2)c1 (racemic) [rac. 1-(m-methoxyphenyl)-N,N-dimethyl-2-cyclohexene-1-ethylamine hydrochloride]",33 mg/kg,35 mg/kg,150 to 300 mg/kg,,
"COc1cccc(C2(CCN(C)C)C=CCCC2)c1.Cl (single isomer, unassigned; (+)) [(+)-1-(m-Methoxyphenyl)-N,N-dimethyl-2-cyclohexene-1-ethylamine hydrochloride]",,24 mg/kg,250 to 500 mg/kg,,
"COc1cccc(C2(CCN(C)C)C=CCCC2)c1.Cl (single isomer, unassigned; (-)) [(-)-1-(m-Methoxyphenyl)-N,N-dimethyl-2-cyclohexene-1-ethylam] [(-)-1-(m-Methoxyphenyl)-N,N-dimethyl-2-cyclohexene-1-ethylamine hydrochloride]",,,,19 mg/kg,250 to 500 mg/kg
